Tested on: SUM149PT spheroids with HUVEC/MSC, viability
Test: Anticancer human tumor SUM149PT cell line growth inhibition [GQUAD];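 further: spheroids exposed to drugs for seven days before readout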;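 on viability, T/C: percent viability relative to DMSO vehicle control taken as 100%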
Settings: for IC50: curve of first compound; for viability, T/C: stronger effect = lower value
In short: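 Multi-cell-type spheroids of tumor cells with HUVEC and mesenchymal stem cells, treated with drug combinations. Concentrations descend in half-log steps from near clinical Cmax, or from 10 microM where Cmax is unknown; viability read-out.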

[1] = second compound 0.0316 µM, first compound 0.0316 µM
[2] = second compound 0.0316 µM, first compound 0.1 µM
[3] = second compound 0.0316 µM, first compound 0.316 µM
[4] = second compound 0.0316 µM, first compound 1 µM
[5] = second compound 0.0316 µM, first compound 3.16 µM
[6] = second compound 0.0316 µM, first compound 10 µM
[7] = second compound 0.1 µM, first compound 0.0316 µM
[8] = second compound 0.1 µM, first compound 0.1 µM
[9] = second compound 0.1 µM, first compound 0.316 µM
[10] = second compound 0.1 µM, first compound 1 µM
[11] = second compound 0.1 µM, first compound 3.16 µM
[12] = second compound 0.1 µM, first compound 10 µM
[13] = second compound 0.316 µM, first compound 0.0316 µM
[14] = second compound 0.316 µM, first compound 0.1 µM
[15] = second compound 0.316 µM, first compound 0.316 µM
[16] = second compound 0.316 µM, first compound 1 µM
[17] = second compound 0.316 µM, first compound 3.16 µM
[18] = second compound 0.316 µM, first compound 10 µM
[19] = second compound 1 µM, first compound 0.0316 µM
[20] = second compound 1 µM, first compound 0.1 µM
[21] = second compound 1 µM, first compound 0.316 µM
[22] = second compound 1 µM, first compound 1 µM
[23] = second compound 1 µM, first compound 3.16 µM
[24] = second compound 1 µM, first compound 10 µM
[25] = second compound 3.16 µM, first compound 0.0316 µM
[26] = second compound 3.16 µM, first compound 0.1 µM
[27] = second compound 3.16 µM, first compound 0.316 µM
[28] = second compound 3.16 µM, first compound 1 µM
[29] = second compound 3.16 µM, first compound 3.16 µM
[30] = second compound 3.16 µM, first compound 10 µM
[31] = second compound 10 µM, first compound 0.0316 µM
[32] = second compound 10 µM, first compound 0.1 µM
[33] = second compound 10 µM, first compound 0.316 µM
[34] = second compound 10 µM, first compound 1 µM
[35] = second compound 10 µM, first compound 3.16 µM
[36] = second compound 10 µM, first compound 10 µM

CC(C)n1c(=O)n(C)c2cnc3cc(F)c(-c4ccc(OCCCN5CCCCC5)nc4)cc3c21 + CN(C)c1ccc(Nc2c3ccc(NC(=O)CCN4CCCC4)cc3nc3cc(NC(=O)CCN4CCCC4)ccc23)cc1
IC50 (second compound 0.0316 µM): > 10000 nM | IC50 (second compound 0.1 µM): > 10000 nM | IC50 (second compound 0.316 µM): > 10000 nM | IC50 (second compound 1 µM): > 10000 nM | IC50 (second compound 3.16 µM): 8830 nM | IC50 (second compound 10 µM): 1180 nM | viability, T/C [1]: 101% | viability, T/C [2]: 88.5% | viability, T/C [3]: 95% | viability, T/C [4]: 99.9% | viability, T/C [5]: 95.8% | viability, T/C [6]: 68.2% | viability, T/C [7]: 98.6% | viability, T/C [8]: 90.2% | viability, T/C [9]: 96.3% | viability, T/C [10]: 95.7% | viability, T/C [11]: 96.5% | viability, T/C [12]: 64.2% | viability, T/C [13]: 94% | viability, T/C [14]: 79.4% | viability, T/C [15]: 86.6% | viability, T/C [16]: 95.8% | viability, T/C [17]: 93% | viability, T/C [18]: 61.5% | viability, T/C [19]: 74.8% | viability, T/C [20]: 83.4% | viability, T/C [21]: 87.4% | viability, T/C [22]: 89.7% | viability, T/C [23]: 81.2% | viability, T/C [24]: 57% | viability, T/C [25]: 84.7% | viability, T/C [26]: 80.9% | viability, T/C [27]: 73% | viability, T/C [28]: 72.2% | viability, T/C [29]: 70.7% | viability, T/C [30]: 46.6% | viability, T/C [31]: 75.3% | viability, T/C [32]: 71.6% | viability, T/C [33]: 61.9% | viability, T/C [34]: 52.1% | viability, T/C [35]: 38.8% | viability, T/C [36]: 24.8%

CC1COCCN1c1cc(-c2ccnn2C)c2ccnc(-c3ccn[nH]3)c2n1 (stereo unspecified) + CN(C)c1ccc(Nc2c3ccc(NC(=O)CCN4CCCC4)cc3nc3cc(NC(=O)CCN4CCCC4)ccc23)cc1
IC50 (second compound 0.0316 µM): 93.3 nM | IC50 (second compound 0.1 µM): 92.7 nM | IC50 (second compound 0.316 µM): 91.3 nM | IC50 (second compound 1 µM): 89.7 nM | IC50 (second compound 3.16 µM): 88.4 nM | IC50 (second compound 10 µM): 65.7 nM | viability, T/C [1]: 96.3% | viability, T/C [2]: 46.9% | viability, T/C [3]: 29.1% | viability, T/C [4]: 23.2% | viability, T/C [5]: 38.2% | viability, T/C [6]: 28% | viability, T/C [7]: 87.8% | viability, T/C [8]: 47.3% | viability, T/C [9]: 29.6% | viability, T/C [10]: 29.4% | viability, T/C [11]: 30% | viability, T/C [12]: 36.1% | viability, T/C [13]: 87.5% | viability, T/C [14]: 46.8% | viability, T/C [15]: 26% | viability, T/C [16]: 26.5% | viability, T/C [17]: 28.1% | viability, T/C [18]: 29.2% | viability, T/C [19]: 82.6% | viability, T/C [20]: 46.6% | viability, T/C [21]: 26.4% | viability, T/C [22]: 23.7% | viability, T/C [23]: 26.8% | viability, T/C [24]: 29.4% | viability, T/C [25]: 79% | viability, T/C [26]: 46.5% | viability, T/C [27]: 20.7% | viability, T/C [28]: 23.5% | viability, T/C [29]: 25.6% | viability, T/C [30]: 24.2% | viability, T/C [31]: 69.9% | viability, T/C [32]: 38% | viability, T/C [33]: 28.9% | viability, T/C [34]: 24.9% | viability, T/C [35]: 25.4% | viability, T/C [36]: 21.9%

CC1COCCN1c1cc(C2(O)CC3CCC(C2)O3)c2cnn(-c3ccn[nH]3)c2n1 (stereo unspecified) + CN(C)c1ccc(Nc2c3ccc(NC(=O)CCN4CCCC4)cc3nc3cc(NC(=O)CCN4CCCC4)ccc23)cc1
IC50 (second compound 0.0316 µM): 82.7 nM | IC50 (second compound 0.1 µM): 85.2 nM | IC50 (second compound 0.316 µM): 74.5 nM | IC50 (second compound 1 µM): 65.1 nM | IC50 (second compound 3.16 µM): 56.7 nM | IC50 (second compound 10 µM): 59.9 nM | viability, T/C [1]: 84.2% | viability, T/C [2]: 43.3% | viability, T/C [3]: 27% | viability, T/C [4]: 25.3% | viability, T/C [5]: 31.2% | viability, T/C [6]: 20% | viability, T/C [7]: 77.4% | viability, T/C [8]: 45% | viability, T/C [9]: 31.4% | viability, T/C [10]: 25.1% | viability, T/C [11]: 27.5% | viability, T/C [12]: 18.4% | viability, T/C [13]: 68.8% | viability, T/C [14]: 42.7% | viability, T/C [15]: 30.8% | viability, T/C [16]: 27.8% | viability, T/C [17]: 24.2% | viability, T/C [18]: 19.6% | viability, T/C [19]: 68.2% | viability, T/C [20]: 39.5% | viability, T/C [21]: 23.4% | viability, T/C [22]: 26.6% | viability, T/C [23]: 21.5% | viability, T/C [24]: 19.5% | viability, T/C [25]: 62.3% | viability, T/C [26]: 38.5% | viability, T/C [27]: 24.3% | viability, T/C [28]: 22.6% | viability, T/C [29]: 22.6% | viability, T/C [30]: 15.6% | viability, T/C [31]: 65.8% | viability, T/C [32]: 37.6% | viability, T/C [33]: 23.5% | viability, T/C [34]: 22.9% | viability, T/C [35]: 20.1% | viability, T/C [36]: 15.7%
